Test results as given in article PMC10321576, “Cyclic peptides target the aromatic cage of a PHD-finger reader domain to modulate epigenetic protein function” (Chemical Science, 2023).
Peptide text beside a SMILES is read from it.

Columns and labels:
KDM7B PHD-finger = biological target: T1, KDM7B PHD-finger (Homo sapiens, UniProt Q9UPP1); test: Protein NMR affinity assessment; format: binding; settings: read-out: NMR pKD, KDM7B PHD-finger (converted)
T1 construct: KDM7B 1-66; His-tag (C); made in house
T1 sequence (Q9UPP1 1-66 isoform Q9UPP1-2): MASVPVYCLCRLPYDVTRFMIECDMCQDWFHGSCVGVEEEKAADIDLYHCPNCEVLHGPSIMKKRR

KDM7B PHD = biological target: T2, KDM7B PHD (Homo sapiens, UniProt Q9UPP1); test: BLI binding; settings: read-out: BLI KD, KDM7B PHD-finger
T2 construct: KDM7B 1-66; made in house
T2 sequence (Q9UPP1 1-66 isoform Q9UPP1-2): T1 sequence (Q9UPP1 1-66 isoform Q9UPP1-2)
Excerpt: Figure S2. BLI for KDM7 proteins with cyclic peptides.
BLI traces for b inding to KDM7 protein domains immobilised by C-terminal His -tag on Ni -NTA
biosensors, against cyclic peptides. Response trace for each peptide concentration is represented by
a different colour, with the fitted curves overlaid in black.
concentration plotted, with 2-fold dilutions thereafter. Dual domain = PHD+JmjC. […]
against KDM7 and other protein domains. t1/2 = half life (0.693 / Koff)
(1 picture or pasted object on this page, not shown here)

full-length KDM7B = test: Pull-down from transfected HEK293T nuclear lysates; format: binding; settings: 100-fold excess competitor
Experimental: HEK293T cells were transiently transfected with either a full-length wild-type KDM7B, or an aromatic cage inactivating mutant KDM7B (Y14A, W29A).[20]
Capture was performed with 1 μM probe incubated in pre-cleared lysate, recovered with streptavidin-conjugated magnetic beads, then washed and eluted by heating in denaturing solution. 100-fold excess OC9 or OC9 V10A were used as competitors. […] The upper left quadrant indicates >5-fold difference in recovered protein (based on T-test difference of mean log 2 (LFQ) values) and p-value threshold <0.05.

Row | Kd (KDM7B PHD-finger) [µM] | Kd (KDM7B PHD) [µM] | SMILES | competition of OC9-Bt pull-down of KDM7B (full-length KDM7B)
1 | > 501 | > 10 | CC(C)C[C@@H]1NC(=O)[C@H](Cc2ccc(O)cc2)NC(=O)[C@H](Cc2ccc(O)cc2)NC(=O)CSC[C@@H](C(N)=O)NC(=O)[C@H]([C@@H](C)O)NC(=O)[C@H](CCCNC(=N)N)NC(=O)[C@H](Cc2ccccc2)NC(=O)[C@@H](C(C)C)NC(=O)[C@H](CO)NC(=O)[C@@H]2CCCN2C(=O)[C@H](Cc2ccc(O)cc2)NC(=O)[C@@H]2CCCN2C(=O)[C@H](Cc2c[nH]cn2)NC(=O)[C@H]([C@@H](C)O)NC1=O [OC9 V10DV] (HELM PEPTIDE1{[O=C(C[*:3])[*:2]].Y.Y.L.T.H.P.Y.P.S.[dV].F.R.T.C.[am]}$PEPTIDE1,PEPTIDE1,1:R3-15:R3$$$V2.0; C-terminus assumed) | 
2 |  |  | CC(C)C[C@@H]1NC(=O)[C@H](Cc2ccc(O)cc2)NC(=O)[C@H](Cc2ccc(O)cc2)NC(=O)CSC[C@@H](C(N)=O)NC(=O)[C@H]([C@@H](C)O)NC(=O)[C@H](CCCNC(=N)N)NC(=O)[C@H](Cc2ccccc2)NC(=O)[C@H](C)NC(=O)[C@H](CO)NC(=O)[C@@H]2CCCN2C(=O)[C@H](Cc2ccc(O)cc2)NC(=O)[C@@H]2CCCN2C(=O)[C@H](Cc2c[nH]cn2)NC(=O)[C@H]([C@@H](C)O)NC1=O [V10A] (HELM PEPTIDE1{[O=C(C[*:3])[*:2]].Y.Y.L.T.H.P.Y.P.S.A.F.R.T.C.[am]}$PEPTIDE1,PEPTIDE1,1:R3-15:R3$$$V2.0; C-terminus assumed) | did not reduce recovery so substantially
